Reference: ChEMBL document CHEMBL1201862, “PubChem BioAssay data set” (2004)
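48-hour exposure; five concentrations; linearly interpolated endpoints. The concentration for 50% growth inhibition is given as GI50.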 The source made the active and inactive calls. Rule as the data show it: active = GI50 up to about 1.1 µM and inactive = higher.

Tests used:
Assay in all cases: NCI-60 cell line screen, 48 h
SK-MEL-28 = test system: SK-MEL-28
SR = test system: SR
A498 = test system: A498
MDA-MB-435 = test system: MDA-MB-435
NCI-H522 = test system: NCI-H522
NCI-H460 = test system: NCI-H460
OVCAR-3 = test system: OVCAR-3
HCT-116 = test system: HCT-116
HT-29 = test system: HT-29
HCT-15 = test system: HCT-15
HOP-62 = test system: HOP-62
SF-295 = test system: SF-295
RXF 393 = test system: RXF 393
SF-268 = test system: SF-268
CAKI-1 = test system: CAKI-1
BT-549 = test system: BT-549
OVCAR-5 = test system: OVCAR-5
MDA-N = test system: MDA-N
U-251 = test system: U-251
PC-3 = test system: PC-3
EKVX = test system: EKVX
ACHN = test system: ACHN
IGROV-1 = test system: IGROV-1
K562 = test system: K562
SK-MEL-2 = test system: SK-MEL-2
OVCAR-8 = test system: OVCAR-8
NCI-H226 = test system: NCI-H226
UO-31 = test system: UO-31
MDA-MB-231 = test system: MDA-MB-231
OVCAR-4 = test system: OVCAR-4
A549 = test system: A549
CCRF-CEM = test system: CCRF-CEM
Hs-578T = test system: Hs-578T
NCI-H23 = test system: NCI-H23
HOP-92 = test system: HOP-92
SW-620 = test system: SW-620
SN12C = test system: SN12C
LOX IMVI = test system: LOX IMVI
TK-10 = test system: TK-10
T47D = test system: T47D
SK-MEL-5 = test system: SK-MEL-5
MOLT-4 = test system: MOLT-4
Malme-3M = test system: Malme-3M
786-0 = test system: 786-0
KM12 = test system: KM12
M14 = test system: M14
UACC-257 = test system: UACC-257
HL-60 = test system: HL-60
SNB-19 = test system: SNB-19
UACC-62 = test system: UACC-62
NCI/ADR-RES = test system: NCI/ADR-RES
DU-145 = test system: DU-145
SF-539 = test system: SF-539
MCF7 = test system: MCF7
RPMI-8226 = test system: RPMI-8226
COLO 205 = test system: COLO 205
SK-OV-3 = test system: SK-OV-3
HCC 2998 = test system: HCC 2998
SNB-75 = test system: SNB-75

## C=C(C)CNCCN
SK-MEL-28
  GI50: > 100 µM (inactive)
SR
  GI50: > 100 µM (inactive)
A498
  GI50: > 100 µM (inactive)
MDA-MB-435
  GI50: > 100 µM (inactive)
NCI-H522
  GI50: > 100 µM (inactive)
NCI-H460
  GI50: > 100 µM (inactive)
OVCAR-3
  GI50: > 100 µM (inactive)
HCT-116
  GI50: > 100 µM (inactive)
HT-29
  GI50: > 100 µM (inactive)
HCT-15
  GI50: > 100 µM
HOP-62
  GI50: > 100 µM (inactive)
SF-295
  GI50: > 100 µM (inactive)
RXF 393
  GI50: > 100 µM (inactive)
SF-268
  GI50: > 100 µM (inactive)
CAKI-1
  GI50: > 100 µM (inactive)
BT-549
  GI50: > 100 µM (inactive)
OVCAR-5
  GI50: > 100 µM (inactive)
MDA-N
  GI50: > 100 µM (inactive)
U-251
  GI50: > 100 µM (inactive)
PC-3
  GI50: > 100 µM (inactive)
EKVX
  GI50: > 100 µM (inactive)
ACHN
  GI50: > 100 µM (inactive)
IGROV-1
  GI50: > 100 µM (inactive)
K562
  GI50: > 100 µM (inactive)
SK-MEL-2
  GI50: > 100 µM (inactive)
OVCAR-8
  GI50: > 100 µM (inactive)
NCI-H226
  GI50: > 100 µM (inactive)
UO-31
  GI50: > 100 µM (inactive)
MDA-MB-231
  GI50: > 100 µM (inactive)
OVCAR-4
  GI50: > 100 µM (inactive)
A549
  GI50: > 100 µM (inactive)
CCRF-CEM
  GI50: > 100 µM (inactive)
Hs-578T
  GI50: > 100 µM (inactive)
NCI-H23
  GI50: > 100 µM (inactive)
HOP-92
  GI50: > 100 µM (inactive)
SW-620
  GI50: > 100 µM (inactive)
SN12C
  GI50: > 100 µM (inactive)
LOX IMVI
  GI50: > 100 µM (inactive)
TK-10
  GI50: > 100 µM (inactive)
T47D
  GI50: > 100 µM (inactive)
SK-MEL-5
  GI50: > 100 µM (inactive)
MOLT-4
  GI50: > 100 µM (inactive)
Malme-3M
  GI50: > 100 µM (inactive)
786-0
  GI50: > 100 µM (inactive)
KM12
  GI50: > 100 µM (inactive)
M14
  GI50: > 100 µM (inactive)
UACC-257
  GI50: > 100 µM (inactive)
HL-60
  GI50: > 100 µM (inactive)
SNB-19
  GI50: > 100 µM (inactive)
UACC-62
  GI50: > 100 µM (inactive)
NCI/ADR-RES
  GI50: > 100 µM (inactive)
DU-145
  GI50: > 100 µM (inactive)

## CSC(SC)=C(C#N)C(=O)Nc1ccc(C)cc1
SK-MEL-28
  GI50: > 100 µM (inactive)
SR
  GI50: 63 µM (inactive)
SF-539
  GI50: > 100 µM (inactive)
MCF7
  GI50: 71.9 µM (inactive)
MDA-MB-435
  GI50: > 100 µM (inactive)
NCI-H522
  GI50: 28.9 µM (inactive)
NCI-H460
  GI50: > 100 µM (inactive)
OVCAR-3
  GI50: > 100 µM (inactive)
HCT-116
  GI50: 49.5 µM (inactive)
HT-29
  GI50: > 100 µM (inactive)
HCT-15
  GI50: > 100 µM
HOP-62
  GI50: > 100 µM (inactive)
SF-295
  GI50: > 100 µM (inactive)
RXF 393
  GI50: > 100 µM (inactive)
SF-268
  GI50: > 100 µM (inactive)
CAKI-1
  GI50: 42.8 µM (inactive)
BT-549
  GI50: > 100 µM (inactive)
OVCAR-5
  GI50: > 100 µM (inactive)
MDA-N
  GI50: > 100 µM (inactive)
U-251
  GI50: > 100 µM (inactive)
PC-3
  GI50: > 100 µM (inactive)
RPMI-8226
  GI50: 42.2 µM (inactive)
EKVX
  GI50: > 100 µM (inactive)
ACHN
  GI50: > 100 µM (inactive)
IGROV-1
  GI50: 61.4 µM (inactive)
K562
  GI50: 75.3 µM (inactive)
SK-MEL-2
  GI50: > 100 µM (inactive)
NCI-H226
  GI50: > 100 µM (inactive)
UO-31
  GI50: 61 µM (inactive)
MDA-MB-231
  GI50: > 100 µM (inactive)
OVCAR-4
  GI50: > 100 µM (inactive)
A549
  GI50: > 100 µM (inactive)
COLO 205
  GI50: > 100 µM (inactive)
SK-OV-3
  GI50: > 100 µM (inactive)
CCRF-CEM
  GI50: 34.6 µM (inactive)
Hs-578T
  GI50: > 100 µM (inactive)
NCI-H23
  GI50: > 100 µM (inactive)
HOP-92
  GI50: 15.5 µM (inactive)
SW-620
  GI50: > 100 µM (inactive)
SN12C
  GI50: > 100 µM (inactive)
LOX IMVI
  GI50: > 100 µM (inactive)
TK-10
  GI50: > 100 µM (inactive)
T47D
  GI50: > 100 µM (inactive)
SK-MEL-5
  GI50: > 100 µM (inactive)
MOLT-4
  GI50: 95.5 µM (inactive)
Malme-3M
  GI50: > 100 µM (inactive)
786-0
  GI50: > 100 µM (inactive)
KM12
  GI50: > 100 µM (inactive)
M14
  GI50: > 100 µM (inactive)
UACC-257
  GI50: > 100 µM (inactive)
HL-60
  GI50: 37.2 µM (inactive)
SNB-19
  GI50: > 100 µM (inactive)
UACC-62
  GI50: 94.4 µM (inactive)
HCC 2998
  GI50: > 100 µM (inactive)
DU-145
  GI50: > 100 µM (inactive)

## COc1ccc(Cc2c(N)[nH]c(=O)n(C)c2=O)cc1
SK-MEL-28
  GI50: > 100 µM (inactive)
SF-539
  GI50: > 100 µM (inactive)
MCF7
  GI50: 5.75 µM (inactive)
A498
  GI50: > 100 µM (inactive)
MDA-MB-435
  GI50: > 100 µM (inactive)
NCI-H522
  GI50: > 100 µM (inactive)
NCI-H460
  GI50: 72.1 µM (inactive)
OVCAR-3
  GI50: > 100 µM (inactive)
SNB-75
  GI50: 11.9 µM (inactive)
HCT-116
  GI50: > 100 µM (inactive)
HT-29
  GI50: 47.5 µM (inactive)
HCT-15
  GI50: 92.7 µM
HOP-62
  GI50: 31.1 µM (inactive)
SF-295
  GI50: > 100 µM (inactive)
RXF 393
  GI50: > 100 µM (inactive)
SF-268
  GI50: 34.6 µM (inactive)
CAKI-1
  GI50: 96.6 µM (inactive)
BT-549
  GI50: > 100 µM (inactive)
OVCAR-5
  GI50: > 100 µM (inactive)
MDA-N
  GI50: > 100 µM (inactive)
U-251
  GI50: > 100 µM (inactive)
PC-3
  GI50: 97.3 µM (inactive)
RPMI-8226
  GI50: > 100 µM (inactive)
EKVX
  GI50: 10.6 µM (inactive)
ACHN
  GI50: > 100 µM (inactive)
IGROV-1
  GI50: > 100 µM (inactive)
K562
  GI50: > 100 µM (inactive)
SK-MEL-2
  GI50: > 100 µM (inactive)
OVCAR-8
  GI50: > 100 µM (inactive)
NCI-H226
  GI50: > 100 µM (inactive)
UO-31
  GI50: 5 µM (inactive)
MDA-MB-231
  GI50: 92.7 µM (inactive)
OVCAR-4
  GI50: 89.7 µM (inactive)
A549
  GI50: > 100 µM (inactive)
COLO 205
  GI50: > 100 µM (inactive)
SK-OV-3
  GI50: > 100 µM (inactive)
Hs-578T
  GI50: 45.1 µM (inactive)
NCI-H23
  GI50: > 100 µM (inactive)
HOP-92
  GI50: 3.9 µM (inactive)
SW-620
  GI50: > 100 µM (inactive)
SN12C
  GI50: 42.8 µM (inactive)
LOX IMVI
  GI50: 56 µM (inactive)
TK-10
  GI50: > 100 µM (inactive)
T47D
  GI50: > 100 µM (inactive)
SK-MEL-5
  GI50: > 100 µM (inactive)
Malme-3M
  GI50: > 100 µM (inactive)
786-0
  GI50: > 100 µM (inactive)
KM12
  GI50: > 100 µM (inactive)
M14
  GI50: > 100 µM (inactive)
UACC-257
  GI50: > 100 µM (inactive)
SNB-19
  GI50: > 100 µM (inactive)
UACC-62
  GI50: > 100 µM (inactive)
HCC 2998
  GI50: > 100 µM (inactive)
NCI/ADR-RES
  GI50: > 100 µM (inactive)
